Source: US7579475B2, “S-(-)-amlodipine nicotinate and process for the preparation thereof” (Hanlim Pharmaceutical Co., Ltd., priority 2002, dated 2009)

What was measured:
[1] = Photostability test (incandescent lamp, 3 weeks)
Description: 1.0 g of S-(−)-amlodipine besylate prepared, using S-(−)-amlodipine, in accordance with U.S. Pat. No. 4,879,303 and 1.0 g of S-(−)-amlodipine nicotinate dihydrate obtained in Example 1, which were placed in glass schales (100×20 mm), were exposed at 25-30° C. for 3 weeks under an incandescent lamp (220V, 100 W) that was placed at 30 cm above the samples.

[2] = tested on: spontaneously hypertensive rats (SHRs); experiment: In vivo anti-hypertensive activity in spontaneously hypertensive rats (tail-cuff systolic blood pressure); set-up: species or system rat; conditions: SHR; for Maximal anti-hypertensive effect (change of systolic blood pressure) / Intensity (maximal effect of S-(−)-amlodipine nicotinate to maximal effect of amlodipine nicotinate) / ED20 (amount necessary for 20% decrease in the blood pressure) / Intensity (reverse ratio of ED20 values relative to amlodipine nicotinate): oral; for Maximal anti-hypertensive effect (change of systolic blood pressure): mean % ± S.E.M.; for Effect on blood pressure (in words): oral, 1, 3 and 10 mg/kg
Description: Male SHRs (Charles Rever Co., Japan) aged 13-14 weeks were used.
The SHRs having a systolic blood pressure over 170 mmHg were divided into 7 groups, i.e., Test Groups 1 to 3 (for amlodipine nicotinate), Test Groups 4 to 6 (for S-(−)-amlodipine nicotinate) and a Control Group. Each Test Group and Control Group consisted of 6-8 SHRs (n=6-8).
The test compounds were dissolved in distilled water to prepare test solutions immediately prior to administration. The test solutions of amlodipine nicotinate and S-(−)-amlodipine nicotinate were prepared by dissolving 1, 3, and 10 mg/kg in distilled water (0.5 ml/100 g rat), respectively, and then administered orally to each Test Group. The vehicle (distilled water) was administered to Control Group.
The systolic blood pressure was measured with Multichannel 8000 (TSE Co., Germany), using a tail-cuff method. That is, the systolic blood pressures of a tail artery of each rat were measured before the administration of the test solutions and after 2, 4, 6, 8, 10, and 24 hours from the administration thereof. In order to facilitate the measurement of blood pressures, the test animals of each Group underwent warming at 37° C. for about 10 minutes before the measurements.
Statistical analysis of the test results were conducted by an unpaired t-test and ANOVA (one-way analysis of variance) with Sigma Stat program (Jandel Co., USA). The secondary evaluations were conducted by a Dunnett's multiple comparison test.

[3] = listed as S-(−)-Amlodipine nicotinate, dihydrate

## CCOC(=O)C1=C(COCCN)NC(C)=C(C(=O)OC)[C@@H]1c1ccccc1Cl.O=S(=O)(O)c1ccccc1 [S-(−)-amlodipine besylate]
[1]; 25-30° C., 3 weeks under incandescent lamp
  Water contents absorbed during the photostability test: 1.5-2.5

## CCOC(=O)C1=C(COCCN)NC(C)=C(C(=O)OC)C1c1ccccc1Cl (stereo not drawn) [S-(−)-amlodipine nicotinate, S-(−)-amlodipine nicotinate dihydrate]
[2]; 1 mg/kg
  Maximal anti-hypertensive effect (change of systolic blood pressure): −12.4 ± 1.73%
[2]; 3 mg/kg
  Intensity (maximal effect of S-(−)-amlodipine nicotinate to maximal effect of amlodipine nicotinate): 1.06
  Maximal anti-hypertensive effect (change of systolic blood pressure): −28.3 ± 3.31%
[2]; 10 mg/kg
  Intensity (maximal effect of S-(−)-amlodipine nicotinate to maximal effect of amlodipine nicotinate): 1.07
  Maximal anti-hypertensive effect (change of systolic blood pressure): −43.6 ± 1.65%
[2]
  Effect on blood pressure (in words): dose-dependently reduced blood pressures
[2]; dihydrate
  ED20 (amount necessary for 20% decrease in the blood pressure): 1.91 ± 0.49 mg/kg
  Intensity (reverse ratio of ED20 values relative to amlodipine nicotinate): about 1.15
[2]; [3]
  ED20 (amount necessary for 20% decrease in the blood pressure): 1.91 ± 0.49 mg/kg
  Intensity (reverse ratio of ED20 values relative to amlodipine nicotinate): 1.15
[1]
  Difference in 1H-NMR before and after photostability test: no significant difference
  Photostability (overall conclusion): improved photostability

## CCOC(=O)C1=C(COCCN)NC(C)=C(C(=O)OC)[C@@H]1c1ccccc1Cl.O=C(O)c1cccnc1 [amlodipine nicotinate]
[2]
  ED20 (amount necessary for 20% decrease in the blood pressure): 2.19 ± 0.57 mg/kg
  Intensity (reverse ratio of ED20 values relative to amlodipine nicotinate): 1.00
  Effect on blood pressure (in words): dose-dependently reduced blood pressures
[2]; 1 mg/kg
  Maximal anti-hypertensive effect (change of systolic blood pressure): −10.20 ± 2.71%
[2]; 3 mg/kg
  Maximal anti-hypertensive effect (change of systolic blood pressure): −26.8 ± 3.22%
[2]; 10 mg/kg
  Maximal anti-hypertensive effect (change of systolic blood pressure): −40.9 ± 2.08%
[2]; listed as Amlodipine nicotinate
  ED20 (amount necessary for 20% decrease in the blood pressure): 2.19 ± 0.57 mg/kg
